{"source": "paper PMC10818746", "about": "“Inhibition of CYP1A1 Alleviates Colchicine-Induced Hepatotoxicity” (Toxins, 2024)", "key": {"CYP1A1 [1]": {"tested_on": "CYP1A1", "experiment": "CYP1A1 gene and protein expression in the liver of colchicine-treated mice", "type": "in vivo, C57BL/6J mice", "settings": "colchicine 3, 5 mg/kg by gavage for 3 days; dose-dependent", "description": "(§1) Ruoyue Huang, Jingyi Duan, We n Huang, Ya n Cheng, Bei wei Zhu and Fei Li\n(§2) Supplementary materials and methods\n(§3) Reference numbers refer to the main text list\n(§4) UHPLC‐Q exactive plus MS Analysis\n(§5) All samples were analyzed on a liquid chromatography system including a Vanquish autosampler, Vanquish detector, Vanquish pump (Thremo Fisher Scientific, Santa Clara, CA). Samples were separated on an ACQUITY UPLC HSS T3 column (2.1×100 mm, […], Waters, USA). The injection volume: 5 μL, and the flow rate was 0.3 mL/min.\n(§6) Phase A was H2O containing 0.01% formic acid, and phase B was acetonitrile containing 0.01% formic acid. The elution gradient was as follows: 0‐12 mi n, 2‐98% B; 12‐14 min, 2% A; 14‐16 min, 98% A. Other parameters are as follows: column temperature 45 ℃ , flow rate of collision gas and dry gas 9 L/min. Capillary voltage 3.5 kV, temperature 350 ℃ , atomizer pressure 35 psi. Vanquish UHPLC‐Q Exactive plus MS (Thermo Fisher, USA) was collected in both positive modes, operating in full scan mode with 60‐900 m/z.\n(§7) Preparation of primary hepatocytes\nPrimary mouse hepatocytes were isolated from male C57BL/6J mice as shown in previous literature. […]\n(§8) Quantitative real‐time PCR analysis […]\n(§9) Immunohistochemistry was determined by used the previously described method. […]"}, "CYP1A1 [2]": {"tested_on": "CYP1A1", "experiment": "CYP1A1 gene and protein expression in primary hepatocytes", "type": "cell-based, C57BL/6J mice", "settings": "colchicine 4–400 µM, 48 h", "description": "(§10) The method of isolating primary mouse hepatocytes from mice (C57BL/6J) was that shown in the previous report, and it is briefly described in Supporting Information.\n(§11) The cells were harvested and used for protein extraction after incubation for 48 h. […]\n(§12) Supplementary materials and methods […]\nas §7\n(§13) Primary mouse hepatocytes were isolated from male C57BL/6J mice as shown in previous literature. The liver was perfused through the portal vei n with Hanks solution twice (the first solution contains 1% penicillin/streptomycin, the second solution contains 0.05% collagenase IV) after mice were anesthetized with ether, and then they were killed by exsanguination. Hepatocytes were harvested by centrifugation three times (The first centrifugal condition is 50 0 rpm for 3 minutes, the second and third centrifugal condition is 1500 rpm for 5 min) after the perfused liver was passed through 100 filter sizes, and they were re‐suspended in Dulbeco Modified Eagle Medium (DMEM) (Hyclone, USA).\nCells were collected and seeded at a density of 2 × 10^5 cells ml‐1 in plates and cultured overnight in William E (Gibco, USA) medium (0.5 U/mL insulin, 1% penicillin/streptomycin, 10% FBS and 0.4 μg/mL dexamethasone) at 37 ℃ in a humidified Air /CO2 Incubator (5% V/V).\nQuantitative real‐time PCR analysis\nQPCR were performed as described previously. […]"}, "CASPASE-1-GSDMD pathway": {"tested_on": "CASPASE-1-GSDMD pathway", "experiment": "Western blot of CASPASE-1-GSDMD pathway in primary hepatocytes", "type": "cell-based, C57BL/6J mice", "description": "as §10, §11, §12, §7, §13\n(§14) Cells were collected and seeded at a density of 2 × 10^5 cells ml‐1 in plates and cultured overnight in William E (Gibco, USA) medium (0.5 U/mL insulin, 1% penicillin/streptomycin, 10% FBS and 0.4 μg/mL dexamethasone) at 37 ℃ in a humidified Air /CO2 Incubator (5% V/V). […]\nQPCR were performed as described previously. Briefly, Trizol reagent (Life Technologi es, Carlsbad, CA, USA) and SYBR Green PCR master mixture (Vazyme, Nanjing, China) were used for the experiment . The qPCR was performed in the CFX Connect real‐time system (Bio‐Rad Laboratories, Hercules, CA, USA), with 18S was used as […]\nThe methods for Western blot analysis were described in previous literature. Briefly, RIPA (POO13B, Beyotime Biotech), BCA kit (P0009, Beyotime Biotech), and 5% BSA (A8020, Solarbio) buffer were used for the experiment. […]"}, "liver [3]": {"tested_on": "liver", "experiment": "Colchicine-induced liver injury in mice", "procedure": "The animal studies were approved by the Animal Care and Use Committee of West China Hospital, Sichuan University (20230412004, the ethics approval date was 12 April 2023). Chengdu Yaokang Biotechnology Co., Ltd. (Chengdu, China), provided the male C57BL/6J mice (18–22 g, 6 to 8 weeks old, No. SCXK (Sichuan) 2020-034). All animals were acclimated to the experimental environment for 1 week, and finally, the animals were anesthetized with CO2 and killed [38].\nALP, ALT and AST were measured in plasma, and MDA (Nanjing Jiancheng Bioengineering Institute, Nanjing, China) was measured in the liver. Histological characteristics were observed by preparing paraffin sections of liver tissue and performing hematoxylin and eosin (H&E) staining."}, "liver [4]": {"tested_on": "liver", "experiment": "Diosmin co-treatment in colchicine-induced liver injury in mice", "type": "in vivo, C57BL/6J mice", "description": "To investigate the role of CYP1A1 in colchicine-induced liver injury in mice, a CYP1A1 agonist (diosmin) was used. […] All mice in the control group received 0.5% CMC-Na prior to the administration of water, and the mice were sacrificed for sample collection 24 h after the final administration.\nSupplementary Materials: Inhibition of CYP1A1 Alleviates\nas §1, §2, §3, §4, §5\nas §6, with “Vanquish UHPLC‐Q Exactive plus MS (Thermo Fisher, USA) was collected in both positive modes, operating in full scan mode with 60‐900 m/z.” left out\nas §8, §9"}, "primary hepatocytes": {"tested_on": "primary hepatocytes", "experiment": "MTT cell viability in primary hepatocytes co-treated with colchicine and diosmin", "type": "cell-based, C57BL/6J mice", "settings": "diosmin pre-treatment 2 h, then colchicine 100 µM, 48 h", "description": "The method of isolating primary mouse hepatocytes from mice (C57BL/6J) was that shown in the previous report, and it is briefly described in Supporting Information. […]\nas §12, §7, §13, §14\nQPCR were performed as described previously. Briefly, Trizol reagent (Life Technologi es, Carlsbad, CA, USA) and SYBR Green PCR master mixture (Vazyme, Nanjing, China) were used for the experiment . […]"}, "CYP1A1 [5]": {"molecular_target": "T1, CYP1A1 (Homo sapiens, UniProt P04798)", "T1 construct": "purchased Research Institute for Liver Diseases Co., Ltd. (Shanghai, China)", "T1 sequence (P04798 1-512)": "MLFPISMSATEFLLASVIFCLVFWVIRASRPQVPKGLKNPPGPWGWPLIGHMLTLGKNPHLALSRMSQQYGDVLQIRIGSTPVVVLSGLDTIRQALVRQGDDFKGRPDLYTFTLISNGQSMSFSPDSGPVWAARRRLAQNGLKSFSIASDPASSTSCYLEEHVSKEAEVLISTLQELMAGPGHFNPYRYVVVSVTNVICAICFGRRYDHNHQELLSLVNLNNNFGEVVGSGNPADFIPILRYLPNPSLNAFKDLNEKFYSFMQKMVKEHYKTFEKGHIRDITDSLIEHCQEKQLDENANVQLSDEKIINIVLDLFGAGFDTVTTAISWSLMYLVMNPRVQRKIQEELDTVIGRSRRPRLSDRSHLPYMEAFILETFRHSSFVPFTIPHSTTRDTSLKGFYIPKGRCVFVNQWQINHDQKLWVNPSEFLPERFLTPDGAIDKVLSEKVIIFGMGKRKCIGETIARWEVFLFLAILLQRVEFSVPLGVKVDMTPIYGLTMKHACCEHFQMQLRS", "experiment": "Inhibition of CYP1A1 demethylation metabolism of colchicine by co-incubation with inhibitor", "type": "biochemical", "settings": "colchicine 25 µM co-cultured with α-naphthoflavone 10 µM; n = 3", "description": "The control group was a system without NADPH or colchicine. […] Pre-cooled acetonitrile was used to terminate the reaction, and then centrifugation (4 °C, 12,000 rpm, 20 min) was performed to obtain the sample.\nAll samples were analyzed as shown in [17] and are briefly described in Supporting Information."}, "liver [6]": {"tested_on": "liver", "experiment": "α-Naphthoflavone intervention in colchicine-induced liver injury in mice", "type": "in vivo, C57BL/6J mice"}, "[7]": {"settings": "colchicine 3, 5 mg/kg by gavage for 3 consecutive days"}}, "data": [{"smiles": "COc1cc2c(c(OC)c1OC)-c1ccc(OC)c(=O)cc1[C@@H](NC(C)=O)CC2", "note": "[colchicine, Colchicine]", "values": [{"measurement": "mRNA and protein levels of the CYP1A1 enzyme in the liver", "setting": "CYP1A1 [1]", "value": "increased"}, {"measurement": "mRNA and protein levels of CYP1A1 in primary hepatocytes", "setting": "CYP1A1 [2]", "value": "dose-dependently increased"}, {"measurement": "CASPASE-1-GSDMD pathway in primary hepatocytes", "setting": "CASPASE-1-GSDMD pathway; colchicine group versus control", "value": "significantly up-regulated"}, {"measurement": "CASPASE-1-GSDMD pathway in the liver", "setting": "liver [3]; colchicine 5 mg/kg, versus control group", "value": "activated"}, {"measurement": "ALP enzyme level in plasma", "setting": "liver [3]; [7]", "value": "significantly increased"}, {"measurement": "ALT enzyme level in plasma", "setting": "liver [3]; [7]", "value": "significantly increased"}, {"measurement": "AST enzyme level in plasma", "setting": "liver [3]; [7]", "value": "significantly increased"}, {"measurement": "CASPASE-1 in the liver (gene expression, immunohistochemical staining)", "setting": "liver [3]; [7]", "value": "activated"}, {"measurement": "body weight of mice", "setting": "liver [3]; [7]", "value": "decreased significantly"}, {"measurement": "gross anatomy of the liver", "setting": "liver [3]; [7]", "value": "enlarged liver and shrunken gallbladder"}, {"measurement": "liver histology, H&E staining", "setting": "liver [3]; [7]", "value": "inflamed liver"}]}, {"smiles": "COc1ccc(-c2cc(=O)c3c(O)cc(O[C@@H]4O[C@H](CO[C@@H]5O[C@@H](C)[C@H](O)[C@@H](O)[C@H]5O)[C@@H](O)[C@H](O)[C@H]4O)cc3o2)cc1O", "note": "[diosmin]", "values": [{"measurement": "colchicine-induced CASPASE-1-GSDMD pathway activation in the liver (cl-CASPASE, cl-GSDMD)", "setting": "liver [4]; diosmin 100 mg/kg + colchicine 5 mg/kg, versus colchicine group", "value": "enhanced"}, {"measurement": "colchicine-induced hepatotoxicity (MDA, AST, ALT, ALP)", "setting": "liver [4]; diosmin 100 mg/kg by gavage 2 h prior to colchicine 5 mg/kg", "value": "effectively aggravated"}, {"measurement": "primary hepatocyte death caused by colchicine (MTT)", "setting": "primary hepatocytes", "value": "exacerbated"}, {"measurement": "CASPASE-1-GSDMD pathway in primary hepatocytes", "setting": "CASPASE-1-GSDMD pathway; diosmin in a dose-gradient manner + colchicine 100 µM, compared to the colchicine-only group", "value": "significantly up-regulated"}]}, {"smiles": "O=c1cc(-c2ccccc2)oc2c1ccc1ccccc12", "note": "[α-naphthoflavone]", "values": [{"measurement": "demethylation metabolism of colchicine by CYP1A1", "setting": "CYP1A1 [5]", "value": "significantly inhibited"}, {"measurement": "colchicine-induced liver injury (AST, ALT enzyme activity and MDA oxidative stress)", "setting": "liver [6]; α-naphthoflavone 30 mg/kg i.p. 2 h prior to colchicine 5 mg/kg, 3 days", "value": "significantly alleviated"}, {"measurement": "CASPASE-1-GSDMD pathway proteins (cl-CASPASE, cl-GSDMD) in the liver", "setting": "liver [6]; α-naphthoflavone 30 mg/kg i.p. + colchicine 5 mg/kg, versus colchicine group", "value": "significantly down-regulated"}, {"measurement": "CASPASE-1-GSDMD pathway protein levels in primary hepatocytes", "setting": "CASPASE-1-GSDMD pathway; colchicine + different concentrations of α-naphthoflavone, dose-gradient manner, versus colchicine group", "value": "restored the abnormal protein levels"}]}]}
